For series [1], the system named is KB (human nasopharyngeal cancer) cells. Description: MTT antitumor activity in vitro, KB cells. It counts as cell-based. The conditions noted are these: 50 μg/mL, DMSO as solvent. Here is the method: (§1) The antitumor activity in vitro was assayed by the MTT method using DMSO as solvent. The tumor inhibition yield and IC50 of the five organogermanium sesquioxides and Ge-132 against KB (human nasopharyngeal cancer), HCT (human colonic cancer), and Bel (human liver cancer) cells were measured.

The subject of series [2] is HCT (human colonic cancer) cells. In words: MTT antitumor activity in vitro, HCT cells. The series is classed as cell-based. The conditions noted are these: 50 μg/mL, DMSO as solvent. Here is the method: as §1
The subject of series [3] is Bel (human liver cancer) cells. In words: MTT antitumor activity in vitro, Bel cells. It counts as cell-based. The conditions noted are these: 50 μg/mL, DMSO as solvent. How it is done: (§2) The antitumor activity in vitro was assayed by the MTT method using DMSO as solvent.
A further series deals with KB, HCT, and Bel cells. Description: MTT antitumor activity in vitro, cell line not singled out. The series is classed as cell-based, human. The conditions noted are these: bioassay at 1, 10, and 50 μg/mL. Here is the method: as §2
A short description of series [4]: Biodistribution in nude mice bearing human colonic cancer xenografts. The series is classed as in vivo, Balb/c nude mice. The conditions noted are these: for Biodistribution, uptake: Tumor; for Biodistribution, uptake / T/NT (ratio of ID %/g of tumor over normal tissue): n = 3; for T/NT (ratio of ID %/g of tumor over normal tissue): 20 h. Here is the method: Experimental animals (Balb/c nude mice) were provided by Experimental Animal Department of Chinese Academy of Medical Sciences. The nude mice were implanted with human colonic carcinoma cells (LoVo cells). When the tumor size was about 1 cm, the mice were used for the experiment.
Twelve nude mice bearing human colonic cancer xenografts were injected in tail vein with 555~740 kBq of ^99mTc labeled compound 5. Three animals were sacrified at 1-hour, 3-hour, 6-hour, and 20-hour postinjection, respectively. Tissues and organs were excised, rinsed, weighted, and counted in a γ counter. The uptake percentage of the injected dose per gram of the measured organ (ID %/g) and the ratio of ID %/g of tumor over normal tissues (T/NT) were calculated.
In general terms: Xenograft models place foreign cells or tissue in a host animal.

Series [5] in a line: Solubility of the powders. The series is classed as physicochemical. The conditions noted are these: 2 mol/L of NaOH solution.

Experimental findings from PMC2695949, “Synthesis and Evaluation of Novel Organogermanium Sesquioxides As Antitumor Agents” (Bioinorganic Chemistry and Applications, 2009) are described below.

For the molecule `O=C1NC(=O)C2C3OC(C[CH]3[Ge](=[O])[O][Ge](=[O])[CH]3CC4OC3C3C(=O)NC(=O)C43)C12` (centres unmarked) [Compound 2], the Inhibition yield in series [1], in series [2] and in series [3] was 0% throughout. Besides, in the series on KB, HCT, and Bel cells, the “antitumor activity against cancer cells (in words)” value (shortened to “antitumor activity”) was “no antitumor activity”.

Take `CCOC(=O)CCC(NC(=O)C[CH2][Ge](=[O])[O][Ge](=[O])[CH2]CC(=O)NC(CCC(=O)OCC)C(=O)OCC)C(=O)OCC` (centres unmarked) [Compound 4, Germanium Sesquioxide of Ethyl Glutamate]: the results for the Inhibition yield in series [1] and in series [2] were 0% and 41.5%, respectively. Moreover, the “antitumor activity” value in the series with KB, HCT, and Bel cells is “certain activities”.

Consider `O=C1OC(=O)C2C3OC(C[CH]3[Ge](=[O])[O][Ge](=[O])[CH]3CC4OC3C3C(=O)OC(=O)C43)C12` (centres unmarked) [Compound 1], for which the Inhibition yield in series [1], in series [2] and in series [3] was 0% each time. The “antitumor activity” value in the series with KB, HCT, and Bel cells was “no antitumor activity”.

For the molecule `NC(=S)NCC[CH2][Ge](=[O])[O][Ge](=[O])[CH2]CCNC(N)=S` [Compound 5, γ-thiocarbamido propyl germanium sesquioxide], the Inhibition yield came to 92.9% in series [1], 84.9% in series [2] and 70.9% in series [3]. In addition, in the series on KB, HCT, and Bel cells, the “antitumor activity” value was “certain activities”. Besides, the “Biodistribution, uptake” value in series [4] (1 h postinjection) worked out at 0.73 % ID/g; in series [4] (3 h postinjection) it was 0.97 % ID/g; in series [4] (6 h postinjection), 0.87 % ID/g; in series [4] (20 h postinjection) it was 0.62 % ID/g. Besides, the clearance in tumor result in series [4] (nude mice, tail vein injection) is reported as “relatively low”. Moreover, the “T/NT (ratio of ID %/g of tumor over normal tissue)” value in series [4] (tumor versus Blood) amounted to 3.01; in series [4] (tumor versus Brain), 18.30; in series [4] (tumor versus Muscle), 5.81. Besides, the solubility result in series [5] is “easily soluble”.

For `O=C(O)C[CH2][Ge](=[O])[O][Ge](=[O])[CH2]CC(=O)O` [Ge-132, carboxyethylgermanium sesquioxide, reference compound], the Inhibition yield in series [1] is listed as 0%; in series [2], 31.4%; in series [3], 0%.

Take `NN1C(=O)C2C3C[CH]([Ge](=[O])[O][Ge](=[O])[CH]4CC5OC4C4C(=O)N(N)C(=O)C54)C(O3)C2C1=O` (centres unmarked) [Compound 3]: the Inhibition yield in series [1], in series [2] and in series [3] was 0% in each case. In the series with KB, HCT, and Bel cells, the “antitumor activity” value is “no antitumor activity”. For the same molecule, the solubility result in series [5] is “easily soluble”.
